Reference: patent publication US5399557A, “Pyrroloazepine compound” (Suntory Limited, priority 1991, dated 1995)
Structures can show the parent of a compound that is named as a salt.

Experiments:
[1] = tested on: α1 receptor; assay: Anti-α1 action: norepinephrine (NE)-induced tonic contraction of isolated thoracic aorta (helical strip); set-up: species or system Hartley male guinea pig; settings: contraction induced by 10^-5 M norepinephrine taken as 100%, guinea pig thoracic aorta, 37° C, compounds marked * tested as hydrochloride; for Anti α1 action (% of Control), 10^-7 M: test drug 10^-7 M, 0.1 µM; for Anti α1 action (% of Control), 10^-8 M: test drug 10^-8 M, 0.01 µM
Procedure: The thoracic aorta of each Hartley male guinea pig (body weight: 300-500 g) was excised. A sample cut in a helical form was suspended under 1 g load in a Magnus cylinder filled with the Tyrode solution of 37° C. which had been saturated with a mixed gas consisting of 95% O2 +5% CO2. Using an isometric transducer ("TB-612J"/NIHON KOHDEN) and a pressure preamplifier ("AP-620G"/NIHON KOHDEN), variations in tension were measured. The measurement results were recorded on a thermal pen-writing recorder ("WT-647G"/NIHON KOHDEN).
Taking the tonic contraction induced by 10^- 5M norepinephrine (NE) as 100%, the percent contractions upon addition of each test drug at 10^-8 and 10^-7 M were determined as anti-α1 action.

[2] = biological target: T1, serotonin (5-HT) receptor (Cavia porcellus, UniProt A0A286Y537); assay: Anti-serotonin action (anti-5-HT action): 5-HT-induced contraction of isolated superior mesenteric artery (helical strip); set-up: species or system Hartley male guinea pig; settings: contraction induced by 10^-5 M serotonin taken as 100%, guinea pig superior mesenteric artery, 37° C, compounds marked * tested as hydrochloride; for remaining activity at 1 µM: test drug 10^-6 M, read-out: Anti 5-HT action (% of Control), 10^-6 M; for remaining activity at 0.1 µM: test drug 10^-7 M, read-out: Anti 5-HT action (% of Control), 10^-7 M
T1 construct: 5-HT-induced contraction
Procedure: (2) Anti-serotonin action (anti-5-HT action)
A sample cut in a helical form was suspended under 0.3 g load in a Magnus cylinder filled with the Tyrode solution of 37° C. which had been saturated with a mixed gas consisting of 95% O2 +5% CO2. Using an isometric transducer ("UL-10"/SHINKOH K.K.) and a pressure preamplifier ("DSA-605A"/SHINKOH K.K.), variations in tension were measured. The measurement results were recorded on a pen-writing recorder ("VP-6537A"/NATIONAL K.K.). Taking the contraction induced by 10^-5 M serotonin (5-HT) as 100%, the percent contractions induced by 10^-5 M 5-HT in the presence of each test drug at 10^-7 and 10^-6 M were determined as anti-5-HT action.

[3] = tested on: platelet aggregation; assay: Anti-platelet-aggregating action: platelet aggregation induced by ADP + 5-HT in platelet rich plasma; type: cell-based, Japanese white house rabbit; settings: Oryctolagus cuniculus, test drug 10^-7 M, aggregation induced by 10^-6 M ADP + 10^-5 M 5-HT, 1 mM CaCl2 CaCl2, rabbit PRP, compound marked * (45) tested as hydrochloride, read-out: Inhibitory rate of platelet aggregation (%)
Procedure: (3) Anti-platelet-aggregating action
Blood was drawn from the auricular artery of Japanese white house rabbit (male, about 3 kg), whereby a platelet rich plasma sample (PRP) was prepared. Platelet aggregating ability was measured using a platelet aggregation measuring apparatus ("PAM-SC"/MEBANIX).
Found under the presence of 1 mM of CaCl2 was a controlling action of the test drug (10^-7 M) against the maximum reaction (100%) of the platelet aggregation induced by 10^-6 M of ADP+10^-5 M of 5-HT.

T1 sequence (A0A286Y537 1-470): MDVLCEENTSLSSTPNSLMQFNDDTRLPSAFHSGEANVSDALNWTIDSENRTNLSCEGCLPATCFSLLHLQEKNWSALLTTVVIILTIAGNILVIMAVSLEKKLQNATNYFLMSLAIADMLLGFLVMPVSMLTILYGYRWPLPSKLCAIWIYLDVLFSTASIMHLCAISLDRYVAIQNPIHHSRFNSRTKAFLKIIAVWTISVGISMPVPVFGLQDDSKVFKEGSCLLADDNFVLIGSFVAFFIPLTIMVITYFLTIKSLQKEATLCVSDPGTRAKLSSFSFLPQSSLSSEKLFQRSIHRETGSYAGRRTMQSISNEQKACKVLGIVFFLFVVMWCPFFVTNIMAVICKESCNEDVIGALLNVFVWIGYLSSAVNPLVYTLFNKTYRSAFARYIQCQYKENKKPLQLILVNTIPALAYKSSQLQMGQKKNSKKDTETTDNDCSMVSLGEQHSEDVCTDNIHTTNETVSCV

Compound | Anti α1 action (% of Control), 10^-7 M [1] | Anti α1 action (% of Control), 10^-8 M [1] | remaining activity at 1 µM [2] [%] | remaining activity at 0.1 µM [2] [%] | inhibition at 0.1 µM [3] [%]
Cn1ccc2c1C(=O)N(CCCN1CCN(c3ccc(F)cc3)CC1)CCC2O (centres unmarked) [Compound No. 40, 7-[3-[4-(4-Fluorophenyl)piperazin-1-yl]propyl]-4-hydroxy-1-methyl-4,5,6,7-tetrahydropyrrolo[2,3-c]azepin-8(1H)-one] | 94.5 % of Control | 100.0 % of Control | 12.5 | 24.2 | –
Cn1ccc2c1C(=O)N(CCCN1CCN(c3ccccc3)CC1)CCC2=O [Compound No. 18, 1-Methyl-7-[3-(4-phenylpiperazin-1-yl)propyl]-6,7-dihydropyrrolo[2,3-c]azepine-4,8(1H,5H)-dione] | 85.5 % of Control | 100.0 % of Control | 16.3 | 52.8 | –
CON=C1CCN(CCCN2CCN(c3ccccc3)CC2)C(=O)c2c1ccn2C [Compound No. 46, 4-Methoxyimino-1-methyl-7-[3-(4-phenylpiperazin-1-yl)propyl]-4,5,6,7-tetrahydropyrrolo[2,3-c]azepin-8(1H)-one] | 28.0 % of Control | 78.7 % of Control | 12.8 | 59.5 | –
CCn1ccc2c1C(=O)N(CCCN1CCN(c3ccccc3)CC1)CCC2=O [Compound No. 19, 1-Ethyl-7-[3-(4-phenylpiperazin-1-yl)propyl]-6,7-dihydropyrrolo[2,3-c]azepine-4,8(1H,5H)-dione] | 90.1 % of Control | 100.0 % of Control | 12.4 | 60.3 | –
CCn1ccc2c1C(=O)N(CCCN1CCN(c3ccccc3)CC1)CCC2=NO [Compound No. 47, 1-Ethyl-4-hydroxyimino-7-[3-(4-phenylpiperazin-1-yl)propyl]-4,5,6,7-tetrahydropyrrolo[2,3-c]azepin-8(1H)-one] | 81.9 % of Control | 100.0 % of Control | – | 5.2 | 34
Cn1ccc2c1C(=O)N(CCCN1CCC(C(=O)c3ccc(F)cc3)CC1)CCC2=NO [Compound No. 43] | 37.9 % of Control | 73.3 % of Control | 8.7 | 43.1 | 18
O=C(c1ccc(F)cc1)C1CCN(CCn2c(=O)[nH]c3ccccc3c2=O)CC1 [Ketanserin tartrate, reference compound] | – | – | – | – | 20
Cn1ccc2c1C(=O)N(CCCN1CCC(c3ccccc3)CC1)CCC2=NO [Compound No. 52, 4-Hydroxyimino-1-methyl-7-[3-(4-phenylpiperidin-1-yl)propyl]-4,5,6,7-tetrahydropyrrolo[2,3-c]azepin-8(1H)-one] | 62.6 % of Control | 97.2 % of Control | 9.9 | 39.1 | –
Cn1ccc2c1C(=O)N(CCCN1CCN(c3ccccc3)CC1)CCC2=NO [Compound No. 45, 4-hydroxyimino-1-methyl-7-[3-(4-phenylpiperazin-1-yl)propyl]-4,5,6,7-tetrahydropyrrolo[2,3-c]azepin-8(1H)-one] | 23.8 % of Control | 79.8 % of Control | – | 11.2 | 30
Cn1ccc2c1C(=O)N(CCCN1CCN(c3ccccc3)CC1)CCC2O (centres unmarked) [Compound No. 39, 4-hydroxy-1-methyl-7-[3-(4-phenylpiperazin-1-yl)propyl]-4,5,6,7-tetrahydropyrrolo[2,3-c]azepin-8(1H)-one] | 80.5 % of Control | 99.3 % of Control | 8.7 | 34.3 | 33
COc1cccc(N2CCN(CCCN3CCC(=NO)c4ccn(C)c4C3=O)CC2)c1 [Compound No. 50, 4-Hydroxyimino-7-[3-[4-(3-methoxyphenyl)piperazin-1-yl]propyl]-1-methyl-4,5,6,7-tetrahydropyrrolo[2,3-c]azepin-8(1H)-one] | 38.8 % of Control | 57.6 % of Control | 18.4 | 60 | –
O=C1c2c(ccn2Cc2ccccc2)C(=NO)CCN1CCCN1CCN(c2ccccc2)CC1 [Compound No. 48, 1-Benzyl-4-hydroxyimino-7-[3-(4-phenylpiperazin-1-yl)propyl]-4,5,6,7-tetrahydropyrrolo[2,3-c]azepin-8(1H)-one] | 60.5 % of Control | 98.9 % of Control | 5.1 | 52.8 | –
